Patent US20240018120A1, “MAGL INHIBITORS” (H. LUNDBECK A/S, priority 2020, published 2024)

Target: T1, MAGL (Homo sapiens, UniProt Q99685)
T1 sequence (Q99685 1-303): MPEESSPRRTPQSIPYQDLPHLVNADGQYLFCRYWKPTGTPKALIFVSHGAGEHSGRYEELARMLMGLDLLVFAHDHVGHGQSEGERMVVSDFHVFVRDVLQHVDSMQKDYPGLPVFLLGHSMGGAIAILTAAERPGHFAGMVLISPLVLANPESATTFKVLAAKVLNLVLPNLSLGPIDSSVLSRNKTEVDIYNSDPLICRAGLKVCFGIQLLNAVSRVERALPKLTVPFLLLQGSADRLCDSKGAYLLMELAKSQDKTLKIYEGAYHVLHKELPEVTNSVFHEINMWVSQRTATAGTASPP
Test: In vitro competitive activity-based protein profiling, PC3 human cell membrane proteomes
Format: biochemical
Design: endogenous in cells; host or cells: PC3 human cells (membrane proteome)
Conditions: human PC3 membrane proteome
Protocol: PC3 human cell membrane proteomes (50 μL, 2.0 mg/mL total protein concentration) were preincubated with varying concentrations of inhibitors at 37° C. After 30 min, the ABPP probe JW912-Bodipy (1.0 μL, 50 μM in DMSO) was added and the mixture was incubated for 30 min at room temperature. Reactions were quenched with SDS loading buffer (15 μL-4×) and run on SDS-PAGE. Following gel imaging, serine hydrolase activity was determined by measuring fluorescent intensity of gel bands corresponding to MAGL using ImageJ 1.43u software. Intensities were converted to percent enzyme activity by normalizing to DMSO controls. IC50 values were determined by fitting percent enzyme activities to a non-linear regression, 4-parameter, sigmoidal dose response function in Prism GraphPad.

SMILES | IC50 [µM]
CS(=O)(=O)Nc1ccc(NC(=O)C2CC23CCN(C(=O)OC(C(F)(F)F)C(F)(F)F)CC3)cn1 (single isomer, unassigned) [Example 180, 1,1,1,3,3,3-hexafluoropropan-2-yl (R or S)-1-((6-(methylsulfonamido)pyridin-3-yl)carbamoyl)-6-azaspiro[2.5]octane-6-carboxylate] | 0.28
O=C(NCc1cncnc1)C1CC12CCN(C(=O)OC(C(F)(F)F)C(F)(F)F)CC2 (single isomer, unassigned) [Example 154, 1,1,1,3,3,3-hexafluoropropan-2-yl (R or S)-1-((pyrimidin-5-ylmethyl)carbamoyl)-6-azaspiro[2.5]octane-6-carboxylate] | 0.86
NC(=O)c1ccc(NC(=O)[C@H]2CC23CCN(C(=O)OC(C(F)(F)F)C(F)(F)F)CC3)cn1 (single isomer, unassigned) [Example 175] | 0.0014
O=C(Nc1cccc(F)c1)C1CC12CCN(C(=O)OC(C(F)(F)F)C(F)(F)F)CC2 (single isomer, unassigned) [Example 148, 1,1,1,3,3,3-hexafluoropropan-2-yl (R or S)-1-((3-fluorophenyl)carbamoyl)-6-azaspiro[2.5]octane-6-carboxylate] | 0.091
COc1ccc(NC(=O)[C@H]2CC23CCN(C(=O)OC(C(F)(F)F)C(F)(F)F)CC3)cn1 (single isomer, unassigned) [Example 37] | 0.0011
O=C(NCC1CCOCC1)[C@@H]1CC12CCN(C(=O)OC(C(F)(F)F)C(F)(F)F)CC2 (single isomer, unassigned) [Example 118] | 0.29
Cc1ccc(NC(=O)C2CC23CCN(C(=O)OC(C(F)(F)F)C(F)(F)F)CC3)cc1 (single isomer, unassigned) [Example 144, 1,1,1,3,3,3-hexafluoropropan-2-yl (R or S)-1-(p-tolylcarbamoyl)-6-azaspiro[2.5]octane-6-carboxylate] | 0.0052
CNC(=O)c1ccc(NC(=O)C2CC23CCN(C(=O)OC(C(F)(F)F)C(F)(F)F)CC3)cn1 (single isomer, unassigned) [Example 32, 1,1,1,3,3,3-Hexafluoropropan-2-yl (R or S)-1-((6-(methylcarbamoyl)pyridin-3-yl)carbamoyl)-6-azaspiro[2.5]octane-6-carboxylate] | 0.25
O=C(Nc1cnoc1)[C@@H]1CC12CCN(C(=O)OC(C(F)(F)F)C(F)(F)F)CC2 (single isomer, unassigned) [Example 15] | 1
COc1ccc(NC(=O)[C@@H]2CC23CCN(C(=O)OC(C(F)(F)F)C(F)(F)F)CC3)cn1 (single isomer, unassigned) [Example 36] | 0.0051
O=C(Nc1cnoc1)[C@H]1CC12CCN(C(=O)OC(C(F)(F)F)C(F)(F)F)CC2 (single isomer, unassigned) [Example 14] | 0.013
O=C(OC(C(F)(F)F)C(F)(F)F)N1CCC2(CC1)CC2C(=O)N1CCOCC1 (single isomer, unassigned) [Example 120, 1,1,1,3,3,3-hexafluoropropan-2-yl (R or S)-1-(morpholine-4-carbonyl)-6-azaspiro[2.5]octane-6-carboxylate] | 0.3
CNC(=O)c1ccc(NC(=O)C2CC23CCN(C(=O)OC(C(F)(F)F)C(F)(F)F)CC3)cn1 (single isomer, unassigned) [Example 33, 1,1,1,3,3,3-Hexafluoropropan-2-yl (R or S)-1-((6-(methylcarbamoyl)pyridin-3-yl)carbamoyl)-6-azaspiro[2.5]octane-6-carboxylate] | 0.0022
Cc1cnc(NC(=O)C2CC23CCN(C(=O)OC(C(F)(F)F)C(F)(F)F)CC3)cn1 (single isomer, unassigned) [Example 111, 1,1,1,3,3,3-hexafluoropropan-2-yl (R or S)-1-((5-methylpyrazin-2-yl)carbamoyl)-6-azaspiro[2.5]octane-6-carboxylate] | 0.074
O=C(NC1CC2(COC2)C1)C1CC12CCN(C(=O)OC(C(F)(F)F)C(F)(F)F)CC2 (single isomer, unassigned) [Example 160, 1,1,1,3,3,3-hexafluoropropan-2-yl (R or S)-1-((2-oxaspiro[3.3]heptan-6-yl)carbamoyl)-6-azaspiro[2.5]octane-6-carboxylate] | 0.59
O=C(NC(=O)C1CC12CCN(C(=O)OC(C(F)(F)F)C(F)(F)F)CC2)C1CCOCC1 (single isomer, unassigned) [Example 27, 1,1,1,3,3,3-Hexafluoropropan-2-yl (R or S)-1-((tetrahydro-2H-pyran-4-carbonyl)carbamoyl)-6-azaspiro[2.5]octane-6-carboxylate] | 0.056

SMILES | IC50 [µM]
O=C(Nc1ccc(C2CC2)nc1)[C@@H]1CC12CCN(C(=O)OC(C(F)(F)F)C(F)(F)F)CC2 (single isomer, unassigned) [Example 162] | 0.16
Cc1ccc(NC(=O)C2CC23CCN(C(=O)OC(C(F)(F)F)C(F)(F)F)CC3)cc1 (single isomer, unassigned) [Example 145, 1,1,1,3,3,3-hexafluoropropan-2-yl (R or S)-1-(p-tolylcarbamoyl)-6-azaspiro[2.5]octane-6-carboxylate] | 0.27
CC1(CNC(=O)C2CC23CCN(C(=O)OC(C(F)(F)F)C(F)(F)F)CC3)CCOCC1 (single isomer, unassigned) [Example 169, 1,1,1,3,3,3-hexafluoropropan-2-yl (R or S)-1-(((4-methyltetrahydro-2H-pyran-4-yl)methyl)carbamoyl)-6-azaspiro[2.5]octane-6-carboxylate] | 0.21
Cc1ccc(NC(=O)[C@H]2CC23CCN(C(=O)OC(C(F)(F)F)C(F)(F)F)CC3)nn1 (single isomer, unassigned) [Example 106] | 0.001
O=C(NCc1cccnn1)C1CC12CCN(C(=O)OC(C(F)(F)F)C(F)(F)F)CC2 (single isomer, unassigned) [Example 156, 1,1,1,3,3,3-hexafluoropropan-2-yl (R or S)-1-((pyridazin-3-ylmethyl)carbamoyl)-6-azaspiro[2.5]octane-6-carboxylate] | 0.45
O=C(Nc1cccc(F)c1)C1CC12CCN(C(=O)OC(C(F)(F)F)C(F)(F)F)CC2 (single isomer, unassigned) [Example 147, 1,1,1,3,3,3-hexafluoropropan-2-yl (R or S)-1-((3-fluorophenyl)carbamoyl)-6-azaspiro[2.5]octane-6-carboxylate] | 0.0018
O=C(Nc1ccnnc1)C1CC12CCN(C(=O)OC(C(F)(F)F)C(F)(F)F)CC2 (single isomer, unassigned) [Example 109, 1,1,1,3,3,3-hexafluoropropan-2-yl (R or S)-1-(pyridazin-4-ylcarbamoyl)-6-azaspiro[2.5]octane-6-carboxylate] | 0.57
CC(=O)Nc1ccc(NC(=O)C2CC23CCN(C(=O)OC(C(F)(F)F)C(F)(F)F)CC3)cn1 (single isomer, unassigned) [Example 171, 1,1,1,3,3,3-hexafluoropropan-2-yl (R or S)-1-((6-acetamidopyridin-3-yl)carbamoyl)-6-azaspiro[2.5]octane-6-carboxylate] | 0.0025
Cc1ncc(NC(=O)C2CC23CCN(C(=O)OC(C(F)(F)F)C(F)(F)F)CC3)cn1 (single isomer, unassigned) [Example 102, 1,1,1,3,3,3-hexafluoropropan-2-yl (R or S)-1-((2-methylpyrimidin-5-yl)carbamoyl)-6-azaspiro[2.5]octane-6-carboxylate] | 0.15
Cc1ccc(NC(=O)[C@@H]2CC23CCN(C(=O)OC(C(F)(F)F)C(F)(F)F)CC3)nn1 (single isomer, unassigned) [Example 105] | 0.1
CP(C)(=O)c1ccc(NC(=O)C2CC23CCN(C(=O)OC(C(F)(F)F)C(F)(F)F)CC3)cn1 (single isomer, unassigned) [Example 21, 1,1,1,3,3,3-Hexafluoropropan-2-yl (R or S)-1-((6-(dimethylphosphoryl)pyridin-3-yl)carbamoyl)-6-azaspiro[2.5]octane-6-carboxylate] | 0.317
CC1(NC(=O)C2CC23CCN(C(=O)OC(C(F)(F)F)C(F)(F)F)CC3)CCOCC1 (single isomer, unassigned) [Example 133, 1,1,1,3,3,3-hexafluoropropan-2-yl (R or S)-1-((4-methyltetrahydro-2H-pyran-4-yl)carbamoyl)-6-azaspiro[2.5]octane-6-carboxylate] | 1.6
O=C(Nc1ccccc1)[C@@H]1CC12CCN(C(=O)OC(C(F)(F)F)C(F)(F)F)CC2 (single isomer, unassigned) [Example 142] | 0.13
CC(=O)Nc1ccc(NC(=O)C2CC23CCN(C(=O)OC(C(F)(F)F)C(F)(F)F)CC3)cn1 (single isomer, unassigned) [Example 172, 1,1,1,3,3,3-hexafluoropropan-2-yl (R or S)-1-((6-acetamidopyridin-3-yl)carbamoyl)-6-azaspiro[2.5]octane-6-carboxylate] | 0.13
O=C(OC(C(F)(F)F)C(F)(F)F)N1CCC2(CC1)CC2C(=O)N1CCOCC1 (single isomer, unassigned) [Example 121, 1,1,1,3,3,3-hexafluoropropan-2-yl (R or S)-1-(morpholine-4-carbonyl)-6-azaspiro[2.5]octane-6-carboxylate] | 0.42
